structure (smiles),measurement,setting,value
CC(C)(C)c1cc(CCC(=O)OCC(COC(=O)CCc2cc(C(C)(C)C)c(O)c(C(C)(C)C)c2)(COC(=O)CCc2cc(C(C)(C)C)c(O)c(C(C)(C)C)c2)COC(=O)CCc2cc(C(C)(C)C)c(O)c(C(C)(C)C)c2)cc(C(C)(C)C)c1O,solubility (mole fraction),"in ethanol, 293.15 K",0.000302
same,solubility (mole fraction),"in ethanol, 298.15 K",0.000445
same,solubility (mole fraction),"in ethanol, 303.15 K",0.000685
same,solubility (mole fraction),"in ethanol, 308.15 K",0.00105
same,solubility (mole fraction),"in ethanol, 313.15 K",0.0016
same,solubility (mole fraction),"in ethanol, 318.15 K",0.00238
same,solubility (mole fraction),"in ethanol, 323.15 K",0.00351
same,solubility (mole fraction),"in ethanol, 328.15 K",0.0051
same,solubility (mole fraction),"in ethanol, 333.15 K",0.0074
same,solubility (mole fraction),"in isopropanol, 293.15 K",0.000148
same,solubility (mole fraction),"in isopropanol, 298.15 K",0.000239
same,solubility (mole fraction),"in isopropanol, 303.15 K",0.000406
same,solubility (mole fraction),"in isopropanol, 308.15 K",0.000631
same,solubility (mole fraction),"in isopropanol, 313.15 K",0.000998
same,solubility (mole fraction),"in isopropanol, 318.15 K",0.00158
same,solubility (mole fraction),"in isopropanol, 323.15 K",0.00252
same,solubility (mole fraction),"in isopropanol, 328.15 K",0.00411
same,solubility (mole fraction),"in isopropanol, 333.15 K",0.00638
same,solubility (mole fraction),"in methanol, 293.15 K",0.000221
same,solubility (mole fraction),"in methanol, 298.15 K",0.000332
same,solubility (mole fraction),"in methanol, 303.15 K",0.000544
same,solubility (mole fraction),"in methanol, 308.15 K",0.000812
same,solubility (mole fraction),"in methanol, 313.15 K",0.00126
same,solubility (mole fraction),"in methanol, 318.15 K",0.00203
same,solubility (mole fraction),"in methanol, 323.15 K",0.00287
same,solubility (mole fraction),"in methanol, 328.15 K",0.00429
same,solubility (mole fraction),"in methanol, 333.15 K",0.00726
